Source: patent US20140120083A1, “TREATMENT OF CANCERS USING PI3 KINASE ISOFORM MODULATORS” (INFINITY PHARMACEUTICALS, INC., priority 2012, published 2014)
Entries after “also recorded” stand apart in the source; their conditions may differ.

Legend:
PI3K-δ and PI3K-γ = test: Phase 1 study in advanced hematologic malignancies, pharmacodynamics; assay type: in vivo, human; settings: patients
Procedure: PK and PD markers were evaluated after the first dose (e.g., 8 mg BID) and at steady state. PD activity (PI3K inhibition) in whole blood was evaluated using a basophil activation assay which measured reduction in CD63 expression on the surface of basophils following ex vivo stimulation.

[1] = Plasma protein binding, human; assay type: in vitro ADME; settings: 100 μM (41700 ng/mL)
Description: […]. […] […].

Pharmacokinetics, monkey = assay type: in vivo, Cynomolgus monkeys
[2] = In vivo rat micronucleus assay
[3] = Phase 1 study in advanced hematologic malignancies, safety
[4] = Clinical study in healthy adult subjects, safety
[5] = Embryo/fetal developmental toxicity, rabbit
[6] = multiple doses for 2 weeks (n=36)

Question: What does the source list for `C[C@H](Nc1ncnc2[nH]cnc12)c1cc2cccc(Cl)c2c(=O)n1-c1ccccc1` [Compound 292]?
Answer: doses achieving complete inhibition of PI3K-δ (PI3K-δ and PI3K-γ): ≥ 15 mg BID; doses increasingly suppressing PI3K-γ (PI3K-δ and PI3K-γ): ≥ 25 mg BID; protein bound [1]: 85.9%; clearance (Pharmacokinetics, monkey; monkey): low to moderate; volume of distribution (Pharmacokinetics, monkey; monkey): high; AUC0-last (Pharmacokinetics, monkey; monkey, IV, 1 mg/kg): 2357 ng·h/mL; AUC(0-inf) (Pharmacokinetics, monkey; monkey, IV, 1 mg/kg): 2379 ng·h/mL; Cl (Pharmacokinetics, monkey; monkey, IV, 1 mg/kg): 7.17 mL/min/kg; Cmax (Pharmacokinetics, monkey; monkey, IV, 1 mg/kg): 1545 ng/mL; T1/2 (Pharmacokinetics, monkey; monkey, IV, 1 mg/kg): 5.0 h; Tmax (Pharmacokinetics, monkey; monkey, IV, 1 mg/kg): 0.083 h; Vss (Pharmacokinetics, monkey; monkey, IV, 1 mg/kg): 1.27 L/kg; AUC0-last (Pharmacokinetics, monkey; monkey, PO, 5 mg/kg): 4596 ng·h/mL; AUC(0-inf) (Pharmacokinetics, monkey; monkey, PO, 5 mg/kg): 4685 ng·h/mL; Cmax (Pharmacokinetics, monkey; monkey, PO, 5 mg/kg): 1327 ng/mL; Foral (Pharmacokinetics, monkey; monkey, PO, 5 mg/kg): 40%; T1/2 (Pharmacokinetics, monkey; monkey, PO, 5 mg/kg): 5.4 h; Tmax (Pharmacokinetics, monkey; monkey, PO, 5 mg/kg): 1.5 h; half-life (Pharmacokinetics, monkey; monkeys): 5 h; rat micronucleus assay [2]: no direct adverse effect; dose limiting toxicity ([3]; 15 mg BID dose cohort): Grade 4 neutropenia; AE Leading to Discontinuation ([3]; 25 mg BID (n = 34)): 2 n; Any AE ([3]; 25 mg BID (n = 34)): 27 n; Any AE Grade 3 ([3]; 25 mg BID (n = 34)): 7 n; Any AE Grade 4 ([3]; 25 mg BID (n = 34)): 5 n; Deaths on Study ([3]; 25 mg BID (n = 34)): 0 n; Dose Reduced (New Grade 3/4 ALT) ([3]; 25 mg BID (n = 34)): 3 n; Dose Reduced (New Grade 3/4 ANC) ([3]; 25 mg BID (n = 34)): 2 n; New Grade 3 ALT ([3]; 25 mg BID (n = 34)): 3 n; New Grade 3 ANC ([3]; 25 mg BID (n = 34)): 2 n; New Grade 4 ANC ([3]; 25 mg BID (n = 34)): 4 n; Related AE ([3]; 25 mg BID (n = 34)): 18 n; Related Grade 3 AE ([3]; 25 mg BID (n = 34)): 4/4 n; Related Grade 4 AE ([3]; 25 mg BID (n = 34)): 4/4 n; SAE ([3]; 25 mg BID (n = 34)): 4 n; dose limiting toxicity ([3]; 75 mg BID): Grade 3 cellulitis; new Grade>3 neutropenia, n (%) ([3]; 20 patients, 8-50 mg BID): 6 (30%); new Grade>3 thrombocytopenia, n (%) ([3]; 20 patients, 8-50 mg BID): 1 (5%); patients with AEs Grade>3 ([3]; 20 patients, 8-50 mg BID): 7 (35%); patients with adverse events ([3]; 20 patients, 8-50 mg BID): 13 (65%); patients with treatment-related AEs ([3]; 20 patients, 8-50 mg BID): 11 patients; patients with treatment-related AEs Grade>3 ([3]; 20 patients, 8-50 mg BID): 5 patients; Grade 3 ALT/AST elevations, n (%) ([3]; 20 patients, 8-50 mg BID, MM patient): 1 (5%); AE Leading to Discontinuation ([3]; Safety Population (n = 55)): 3 n; Any AE ([3]; Safety Population (n = 55)): 46 n; Any AE Grade 3 ([3]; Safety Population (n = 55)): 18 n; Any AE Grade 4 ([3]; Safety Population (n = 55)): 8 n; Deaths on Study ([3]; Safety Population (n = 55)): 3 n; Dose Reduced (New Grade 3/4 ALT) ([3]; Safety Population (n = 55)): 6 n; Dose Reduced (New Grade 3/4 ANC) ([3]; Safety Population (n = 55)): 5 n; New Grade 3 ALT ([3]; Safety Population (n = 55)): 5 n; New Grade 3 ANC ([3]; Safety Population (n = 55)): 10 n; New Grade 4 ANC ([3]; Safety Population (n = 55)): 5 n; Related AE ([3]; Safety Population (n = 55)): 31 n; Related Grade 3 AE ([3]; Safety Population (n = 55)): 14 n; Related Grade 4 AE ([3]; Safety Population (n = 55)): 6 n; SAE ([3]; Safety Population (n = 55)): 11 n; MTD ([3]; after dose escalation to 75 mg BID): not yet reached; tolerability ([3]; patients with advanced hematologic malignancies): well tolerated; also recorded: well-tolerated; IgE ([4]; healthy subjects): No increases; deaths and serious adverse events ([4]; healthy subjects): no deaths and no serious adverse events; safety laboratory or ECG abnormalities ([4]; healthy subjects): No clinically significant safety laboratory or electrocardiogram (ECG) abnormalities; QTcF greater than 500 msec ([4]; healthy subjects, serial ECGs): No subject; largest change from baseline in QTcF ([4]; healthy subjects, serial ECGs): 37 ms; tolerability ([4]; healthy subjects, single doses up to 30 mg, up to 10 mg daily for 14 days): well tolerated; also recorded: well-tolerated; headache [4, 6]: 8%; myalgia [4, 6]: 6%; nasopharyngitis [4, 6]: 6%; NOAEL ([5]; female, rabbit, in vivo): 75 mg/kg/day; mean AUC0-24 hr at the NOAEL ([5]; pregnant rabbits, last day of dosing): 66200 ng·h/mL; maternal and fetal NOAEL ([5]; rabbit): 900 mg/m^2/day
